In article PMC3513558 (European journal of medicinal chemistry, 2012):
Entries after “also recorded” stand apart in the source; their conditions may differ.

Molecular target: intracellular HCV NS5B RdRp activity in BHK-NS5B-FRLuc reporter cells (Hepatitis C virus genotype 1b, UniProt P26663)
Experiment: BHK-NS5B-FRLuc reporter assay, intracellular NS5B RdRp activity
Assay type: cell-based
Settings: 100 µM, 42 hours, RLuc/FLuc vs DMSO

intracellular HCV NS5B RdRp activity in BHK-NS5B-FRLuc reporter cells, sequence (P26663 2420-3010): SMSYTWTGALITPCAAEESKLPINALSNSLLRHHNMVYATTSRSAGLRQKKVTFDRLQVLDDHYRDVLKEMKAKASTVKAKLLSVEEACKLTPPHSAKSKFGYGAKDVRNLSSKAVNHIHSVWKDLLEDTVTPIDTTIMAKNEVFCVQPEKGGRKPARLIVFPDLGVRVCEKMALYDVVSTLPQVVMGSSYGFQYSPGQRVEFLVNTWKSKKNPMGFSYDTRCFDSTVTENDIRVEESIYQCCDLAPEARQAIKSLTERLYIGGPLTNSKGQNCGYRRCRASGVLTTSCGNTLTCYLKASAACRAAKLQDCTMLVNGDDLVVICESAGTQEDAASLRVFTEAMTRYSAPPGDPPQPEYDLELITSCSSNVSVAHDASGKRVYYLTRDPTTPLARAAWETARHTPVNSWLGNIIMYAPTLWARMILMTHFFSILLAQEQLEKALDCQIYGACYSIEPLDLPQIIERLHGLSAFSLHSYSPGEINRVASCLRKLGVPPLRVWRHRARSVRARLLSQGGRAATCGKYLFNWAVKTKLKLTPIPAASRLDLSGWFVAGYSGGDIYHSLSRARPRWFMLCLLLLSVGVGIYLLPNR

## Cc1cc(O)c(C(c2ccc(Cl)c(Cl)c2)c2c(O)cc(C)oc2=O)c(=O)o1 [Compound 8, 3,3'-[(3,4-Dichlorophenyl)methylene]bis(4-hydroxy-6-methyl-2H-pyran-2-one)]
  % Inhibition of intracellular NS5B RdRp activity: did not inhibit; also recorded: No inhibition
